The assay concerns the target T1, SETD2 (Homo sapiens, UniProt Q9BYW2).
T1 construct: SETD2 catalytic SET domain (amino acids 1347–1711, UniProt No: Q9BYW2); made in house; host or cells: E. coli
T1 sequence (Q9BYW2 1347-1711): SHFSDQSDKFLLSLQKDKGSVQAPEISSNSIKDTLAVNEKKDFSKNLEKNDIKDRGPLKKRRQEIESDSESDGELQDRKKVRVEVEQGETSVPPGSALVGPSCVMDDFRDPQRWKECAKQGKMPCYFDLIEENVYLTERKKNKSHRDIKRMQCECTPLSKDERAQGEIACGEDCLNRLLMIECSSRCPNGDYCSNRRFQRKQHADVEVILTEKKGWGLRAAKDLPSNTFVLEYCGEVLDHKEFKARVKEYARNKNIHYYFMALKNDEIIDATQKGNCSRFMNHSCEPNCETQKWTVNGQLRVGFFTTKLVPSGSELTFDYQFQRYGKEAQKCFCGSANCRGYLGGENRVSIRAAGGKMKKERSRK
The assay can be described thus: Time courses of methylation of ssK36 and H3K36 compared (initial slopes). The conditions noted are these: 20 µM substrate, 6 µM enzyme; two experiments, average ± SEM. In kind it is biochemical. An excerpt:
Fig. 2 Design of an optimized SETD2 peptide substrate and analysis of its methylation. a Variants of the H3K36 (29–43) peptide containing up to five mutations (Supplementary Table 1) were synthesized on a cellulose membrane and methylated by SETD2. The signal of the transferred radioactive methyl groups was detected by autoradiography. Spots A1 and B15 contain the H3K36 sequence, A2 and B16 the H3K36A peptide. Two films with different exposure times are shown to visualize weaker methylated spots as well. b Comparison of the methylation of purified super-substrate (ssK36) and the H3K36 peptides. […] Methylation reactions were conducted using 20 µM peptide and 6 µM enzyme. […]
The H3K36 (27–43) and the H3K36M (27–43) peptides were purchased from Intavis AG (Köln, Germany) and the ssK36 peptide (29–43) and the ssK36M peptide (29–43) were from Innovative Peptide Solutions (Berlin, Germany). […] The signals of the transferred radioactive labeled methyl groups were detected by autoradiography using a hyperfilm^TM high performance autoradiography film (GE Healthcare) at −80 °C in the dark. […]
Time courses of ssK36 methylation were analyzed by fitting to an exponential reaction progress curve (Eq. 1). Initial rates of single turnover reactions were determined using the first derivative of eq. […]

As to “APRFGGVKRPNRYRP [ssK36, super-substrate peptide with four amino acid exchanges (A31R, T32F, K37R, H39N)]”, the “fold higher initial slope for ssK36 methylation vs H3K36” value is given as 290 ± 70 fold.

The record behind these values is publication PMC7495481, “Sequence specificity analysis of the SETD2 protein lysine methyltransferase and discovery of a SETD2 super-substrate” (Communications Biology, 2020).
